Common to all, as to type: biochemical
Holding throughout (conditions): single triphosphate offered to enzyme/primer/template complex, template dG; 37° C. for 45 min; denaturing PAGE

For test [1], the target named is HIV reverse transcriptase (Human immunodeficiency virus type 1 group M subtype B, UniProt P04585). Briefly: Primer extension / chain termination with HIV reverse transcriptase. The source says:
(§1) The nucleoside incorporation experiment for one of the modified nucleotide analog compounds of the present invention is illustrated in FIGS. 12 and 13. […] The first nucleoside added to the primer should be a C residue (coded by the G residue of the template). A single triphosphate of dC or the above analog is offered to the enzyme/primer/template complex. […] In the remaining lanes of the gel, experiments have been designed with only the analog dd2ApyTP present with the primer template complex.
(§2) The following buffers were used for each polymerase: DNA polmerase α, 50 mM Tris.HCl pH 8.0, 5 mM Mg(AcO)2, 1 mM DTT, 1 mM spermidine; DNA pol β 50 mM Tris.HCl pH 8.0, 10 mM MgCl2, 1 mM DTT; DNA Polymerase γ 50 mM Tris.HCl pH 7.5, 100 mM NaCl, 2.5 MM MgCl2; HIV RT 50 mM Tris.HCl pH 8.5, 10 mM MgCl2, 40 mM KCl, 1 mM DTT. Template, primer and the corresponding buffer were mixed and heated to 100° C. for 1 min, allowed to cool to room temperature then placed on ice for 30 min. Once the template and primer had been allowed to anneal the polymerase was added. The appropriate amount of template-primer mixture was added to a vial containing water and the NTP(s) at the desired concentration. Typical reaction volumes were 10 μL. The reactions were incubated at 37° C. for 45 min. […] Primer extensions were analyzed by standard methods by denaturing Polyacrylamide Gel Electrophoresis (PAGE). […]

The target of test [2] is human polymerase β (Homo sapiens, UniProt P06746). Briefly: Primer extension / chain termination with human polymerase β.
Text: as §1, §2

For test [3], the target named is T1, human polymerase α (Homo sapiens, UniProt P09884).
T1 sequence (P09884 1-1462): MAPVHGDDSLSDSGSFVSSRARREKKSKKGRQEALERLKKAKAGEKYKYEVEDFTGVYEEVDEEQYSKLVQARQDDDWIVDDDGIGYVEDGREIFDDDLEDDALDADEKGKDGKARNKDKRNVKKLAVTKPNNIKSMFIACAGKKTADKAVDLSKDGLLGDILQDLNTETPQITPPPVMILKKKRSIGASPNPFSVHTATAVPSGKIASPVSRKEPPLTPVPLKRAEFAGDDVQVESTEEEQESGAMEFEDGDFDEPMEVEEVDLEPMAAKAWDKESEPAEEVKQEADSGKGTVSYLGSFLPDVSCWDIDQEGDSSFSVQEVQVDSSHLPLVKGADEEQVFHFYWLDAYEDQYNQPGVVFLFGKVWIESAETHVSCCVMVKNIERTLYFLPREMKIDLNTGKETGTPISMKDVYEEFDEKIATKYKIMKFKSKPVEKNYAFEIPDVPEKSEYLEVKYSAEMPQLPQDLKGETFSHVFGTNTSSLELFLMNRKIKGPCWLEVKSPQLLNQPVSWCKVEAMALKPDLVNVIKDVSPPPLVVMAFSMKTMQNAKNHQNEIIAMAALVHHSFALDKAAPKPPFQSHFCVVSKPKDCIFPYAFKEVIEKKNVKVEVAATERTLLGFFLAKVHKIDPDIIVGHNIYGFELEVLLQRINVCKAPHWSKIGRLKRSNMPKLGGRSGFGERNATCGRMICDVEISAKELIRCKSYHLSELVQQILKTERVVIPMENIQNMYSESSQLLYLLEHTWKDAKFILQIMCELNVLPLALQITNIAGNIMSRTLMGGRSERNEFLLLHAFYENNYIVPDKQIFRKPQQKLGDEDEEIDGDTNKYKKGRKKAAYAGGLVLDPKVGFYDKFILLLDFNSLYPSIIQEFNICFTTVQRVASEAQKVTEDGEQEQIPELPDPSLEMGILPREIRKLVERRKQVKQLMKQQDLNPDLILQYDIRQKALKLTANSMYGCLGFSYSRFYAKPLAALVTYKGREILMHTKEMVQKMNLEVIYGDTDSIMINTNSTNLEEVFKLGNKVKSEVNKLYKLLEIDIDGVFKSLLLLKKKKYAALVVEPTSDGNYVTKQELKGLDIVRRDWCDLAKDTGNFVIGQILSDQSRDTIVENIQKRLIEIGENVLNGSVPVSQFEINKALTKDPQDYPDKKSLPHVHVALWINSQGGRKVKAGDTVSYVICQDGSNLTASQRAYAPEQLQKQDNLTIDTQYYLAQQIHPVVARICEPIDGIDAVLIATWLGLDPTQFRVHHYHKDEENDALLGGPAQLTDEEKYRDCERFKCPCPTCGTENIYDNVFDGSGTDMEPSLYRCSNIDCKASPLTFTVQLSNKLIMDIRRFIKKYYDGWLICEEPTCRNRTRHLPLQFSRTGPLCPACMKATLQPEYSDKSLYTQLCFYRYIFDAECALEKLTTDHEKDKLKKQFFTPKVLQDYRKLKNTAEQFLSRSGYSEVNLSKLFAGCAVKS
Kind of test: Primer extension / chain termination with human polymerase α. Here is the method:
(§3) FIG. 13 illustrates the results for polymerases α and γ.
(§4) The following buffers were used for each polymerase: DNA polmerase α, 50 mM Tris.HCl pH 8.0, 5 mM Mg(AcO)2, 1 mM DTT, 1 mM spermidine; DNA pol β 50 mM Tris.HCl pH 8.0, 10 mM MgCl2, 1 mM DTT; DNA Polymerase γ 50 mM Tris.HCl pH 7.5, 100 mM NaCl, 2.5 MM MgCl2; HIV RT 50 mM Tris.HCl pH 8.5, 10 mM MgCl2, 40 mM KCl, 1 mM DTT. Template, primer and the corresponding buffer were mixed and heated to 100° C. for 1 min, allowed to cool to room temperature then placed on ice for 30 min. Once the template and primer had been allowed to anneal the polymerase was added. The appropriate amount of template-primer mixture was added to a vial containing water and the NTP(s) at the desired concentration. Typical reaction volumes were 10 μL. The reactions were incubated at 37° C. for 45 min. The reactions were quenched using Na-EDTA, heated at 100° C. for 1 min, and then flash frozen in liquid N2. Primer extensions were analyzed by standard methods by denaturing Polyacrylamide Gel Electrophoresis (PAGE).
(§5) Analytical polyacrylamide gel electrophoresis was performed using a 38×50 cm Sequi-Gen GT sequencing cell with a thickness of 0.4 mm and 15% monomer (acrylamide:bisacrylamide 19:1). Gels were run using 90 mM Tris-Borate 1 mM EDTA buffer (pH 8.3). Gels were imaged on Phosphorimager: 425 from Molecular Dynamics (Sunnyvale, Calif.).

Test [4] has as its target T2, human polymerase γ (Homo sapiens, UniProt P54098).
T2 sequence (P54098 1-1239): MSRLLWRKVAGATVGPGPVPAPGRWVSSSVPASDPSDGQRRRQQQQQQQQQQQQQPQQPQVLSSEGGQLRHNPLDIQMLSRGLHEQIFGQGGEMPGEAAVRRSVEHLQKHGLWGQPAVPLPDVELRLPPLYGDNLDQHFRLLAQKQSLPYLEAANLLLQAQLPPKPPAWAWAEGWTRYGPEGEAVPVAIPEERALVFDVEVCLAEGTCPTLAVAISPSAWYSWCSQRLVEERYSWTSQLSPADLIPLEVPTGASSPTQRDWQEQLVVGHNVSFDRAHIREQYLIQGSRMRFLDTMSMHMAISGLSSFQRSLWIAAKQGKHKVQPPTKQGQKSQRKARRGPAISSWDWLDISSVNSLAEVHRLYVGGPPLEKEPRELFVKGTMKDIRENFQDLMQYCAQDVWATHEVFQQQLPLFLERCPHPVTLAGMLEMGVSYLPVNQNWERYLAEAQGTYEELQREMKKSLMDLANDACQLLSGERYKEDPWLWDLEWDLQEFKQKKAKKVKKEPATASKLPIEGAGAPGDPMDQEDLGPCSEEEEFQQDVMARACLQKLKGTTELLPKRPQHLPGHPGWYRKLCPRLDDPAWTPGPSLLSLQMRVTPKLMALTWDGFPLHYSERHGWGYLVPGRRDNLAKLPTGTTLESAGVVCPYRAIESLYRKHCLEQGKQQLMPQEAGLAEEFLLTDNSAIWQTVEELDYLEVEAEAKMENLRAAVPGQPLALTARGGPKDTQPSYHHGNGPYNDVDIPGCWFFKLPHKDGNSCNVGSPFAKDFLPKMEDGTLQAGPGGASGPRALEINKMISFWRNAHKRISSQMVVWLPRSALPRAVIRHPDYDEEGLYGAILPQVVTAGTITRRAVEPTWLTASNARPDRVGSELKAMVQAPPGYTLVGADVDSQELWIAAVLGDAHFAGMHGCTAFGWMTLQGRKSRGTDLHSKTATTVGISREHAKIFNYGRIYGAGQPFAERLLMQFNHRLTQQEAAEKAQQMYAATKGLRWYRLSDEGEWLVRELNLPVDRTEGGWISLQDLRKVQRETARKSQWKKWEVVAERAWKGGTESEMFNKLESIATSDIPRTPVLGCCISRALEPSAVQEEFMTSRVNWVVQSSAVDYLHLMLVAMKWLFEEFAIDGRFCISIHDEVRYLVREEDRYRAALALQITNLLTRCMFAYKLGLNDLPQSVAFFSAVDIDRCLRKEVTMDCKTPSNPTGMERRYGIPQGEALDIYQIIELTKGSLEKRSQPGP
Kind of test: Primer extension / chain termination with human polymerase γ. Here is the method: as §3, §4, §5

For `Nc1ccn([C@H]2C[C@H](O)[C@@H](COP(=O)(O)OP(=O)(O)OP(=O)(O)O)O2)c(=O)n1` [dCTP], the “incorporation of the triphosphate into the primer (primer extension, gel, FIG. 12 left)” value in test [1] is “two additions of the nucleoside”. Further, in test [2], the “incorporation of the triphosphate into the primer (primer extension, gel, FIG. 12 right)” value is on record as “incorporated by human polymerase β in the normal fashion”. Besides, the “incorporation of the triphosphate into the primer (primer extension, gel, FIG. 13 left)” value in test [3] is listed as “normal incorporation into the primer”. For the same molecule, in test [4], the “incorporation of the triphosphate into the primer (primer extension, gel, FIG. 13 right)” value was “normal incorporation into the primer”.

The values are drawn from US6914052B2, “Selective anti-viral nucleoside chain terminators” (The Trustees of Boston College, priority 2001, dated 2005).
